From patent publication US20160061841A1, “NRF2-BASED CANCER TREATMENT AND DETECTION METHODS AND USES” (CanBas Co., Ltd., priority 2014, published 2016)
Where no end group is shown, it is not given here. [ ]: non-standard residue; d: D form. dPhe(F5) = N[C@H](Cc1c(F)c(F)c(F)c(F)c1F)C(=O)O; dBpa = N[C@H](Cc1ccc(C(=O)c2ccccc2)cc1)C(=O)O; dCha = N[C@H](CC1CCCCC1)C(=O)O

Assays:
NCI-H2291 = assay: CDDP-enhancing activity of CBP501, cell cycle distribution by flow-cytometry; assay type: cell-based, Human; conditions: 1 h co-exposure with CDDP
Method: (§1) Cell culture and reagents. Human NSCLC cell lines were cultured in a variety of media, each supplemented with 10% fetal bovine serum (Invitrogen, San Diego, CA) at 37° C. with 5% CO2/air. The media used was RPMI1640 (Sigma-Aldrich, St. Louis, Mo.) for NCI-H1755, NCI-H2030, NCI-H1437, NCI-H2122, NCI-H2172, NCI-H2228, NCI-H1563, NCI-H1944, NCI-H1993, NCI-H1734, NCI-H1568, NCI-H2444, NCI-H2291, NCI-H2347, NCI-H1838, NCI-H1299, HCC827, NCI-H1975, NCI-H1155, NCI-H522 and NCI-H1703; RPMI1640 supplemented with 2mM L-glutamine (Invitrogen) for NCI-H727; RPMI1640 supplemented with 4.5 g/L D-glucose (Sigma-Aldrich), 10 mM HEPES (Sigma-Aldrich) and 1 mM sodium pyruvate (Sigma-Aldrich) for NCI-H358, NCI-H520, NCI-H23, NCI-H647 and NCI-H838; Ham's F12K (Sigma-Aldrich) for A549. CDDP was purchased from Sigma-Aldrich. Sulforaphane (SFN) was purchased from Sigma-Aldrich. All NSCLC cell lines were purchased from ATCC and STR analysis had been performed by ATCC to authenticate the identity of each cell line. All cell lines were used within three months after thawing.
(§2) Cell cycle analysis. Cells were plated in 24-well plates and incubated for 24 hours. The cells were treated with or without CDDP plus or minus CBP501 at the indicated concentration for the indicated times. The cells were harvested and stained with Krishan's solution (0.1% sodium citrate, 50 μg/ml propidium iodide, 20 μg/ml RNase A, 0.5% NP-40). Stained cells were analyzed by FACSCalibur (Becton Dickinson, Franklin Lakes, N.J.) using CELLQuest software (Becton Dickinson).
(§3) Here, the change in the cell cycle distribution, as indicated by flow-cytometry, was used to estimate the sensitivity of NSCLC cell lines to CBP501-enhanced cytotoxicity to CDDP. Such changes were monitored in cells treated with CDDP in the presence or absence of CBP501. The utility of this analysis for assessing the effectiveness of anti-cancer therapy is based on the absence of functioning G1/S checkpoint regulation in the cell cycle of many types of cancer cells (14). Lack of a functional G1/S checkpoint leads to an accumulation of cancer cells in G2/M phase upon their exposure to DNA-damaging anticancer agents (14, 15).
(§4) To assess the CDDP-enhancing activity of CBP501, one can examine either of two dose-response curves in which the X-axis indicates the dose of CDDP and Y-axis indicates either the number of cells in subG1 or in G2/M. The transition and peak in either dose-response curve will shift to the left in the presence of CBP501 for CBP501-sensitive cells, indicating the enhanced ability of CDDP to change the cell cycle distribution. […] Using this criterion based on CBP501's ability to shift the CDDP-induced subG1 or G2/M dose-response curve, twelve NSCLC cell lines were classified as being either, CBP501-sensitive or CBP501-insensitive. Cell lines that shifted the curve two fold or more were classified as CBP501 sensitive cells and those that shifted the curve less than two fold were classified as CBP501 insensitive (Table 1). Classification of CBP501 sensitivity in NSCLC cell lines.

NCI-H2444 = assay: as above; assay type: cell-based, Human; conditions: 1 h co-exposure with CDDP
Method: as §1, §2, §3, §4

NCI-H2030 = assay: as above; assay type: cell-based, Human; conditions: 1 h co-exposure with CDDP, shift of subG1 or G2/M dose-response curve
Method: as §1, §2, §3, §4

NCI-H2347 = assay: as above; assay type: cell-based, Human; conditions: 1 h co-exposure with CDDP
Method: as §1, §2, §3, §4

NCI-H2172 = assay: as above; assay type: cell-based, Human; conditions: 1 h co-exposure with CDDP, shift of subG1 or G2/M dose-response curve
Method: as §1, §2, §3, §4

NCI-H1944 = assay: as above; assay type: cell-based, Human; conditions: 1 h co-exposure with CDDP, shift of subG1 or G2/M dose-response curve
Method: as §1, §2, §3, §4

NCI-H838 = assay: as above; assay type: cell-based, Human; conditions: 1 h co-exposure with CDDP; for Folds increase of CDDP effect by CBP501: shift of subG1 or G2/M dose-response curve
Method: as §1, §2, §3, §4

NCI-H2122 = assay: as above; assay type: cell-based, Human; conditions: 1 h co-exposure with CDDP, shift of subG1 or G2/M dose-response curve
Method: as §1, §2, §3, §4

NCI-H1568 = assay: as above; assay type: cell-based, Human; conditions: 1 h co-exposure with CDDP
Method: as §1, §2, §3, §4

NCI-H2228 = assay: as above; assay type: cell-based, Human; conditions: 1 h co-exposure with CDDP
Method: as §1, §2, §3, §4

NCI-H1563 = assay: as above; assay type: cell-based, Human; conditions: 1 h co-exposure with CDDP
Method: as §1, §2, §3, §4
(§5) Although the expression of Nrf2 or its several downstream transcription targets may possibly predict resistance to CBP501, the general reliability of these predictive markers for CBP501-sensitivity remained to be established. The combination effect of CBP501 and CDDP in sixteen additional NSCLC cell lines, classifying each as CBP501 sensitive or insensitive by the prior criteria was analyzed (Table 2). Classification of CBP501 sensitivity in additional NSCLC cell lines.

NCI-H1993 = assay: as above; assay type: cell-based, Human; conditions: 1 h co-exposure with CDDP, shift of subG1 or G2/M dose-response curve
Method: as §1, §2, §3, §4, §5

NCI-H1755 = assay: as above; assay type: cell-based, Human; conditions: 1 h co-exposure with CDDP
Method: as §1, §2, §3, §4, §5

NCI-H1734 = assay: as above; assay type: cell-based, Human; conditions: 1 h co-exposure with CDDP
Method: as §1, §2, §3, §4, §5

NCI-H1155 = assay: as above; assay type: cell-based, Human; conditions: 1 h co-exposure with CDDP
Method: as §1, §2, §3, §4, §5

NCI-H1299 = assay: as above; assay type: cell-based, Human; conditions: 1 h co-exposure with CDDP, shift of subG1 or G2/M dose-response curve
Method: as §1, §2, §3, §4, §5

14-3-3 protein = conditions: cited from earlier work
[1] = shift of subG1 or G2/M dose-response curve
[2] = NCI-H838 (Table 2, additional cell lines)

With “(d-Bpa)(d-Ser)(d-Trp)(d-Ser)(d-Phe-2,3,4,5,6-F)(d-Cha)(d-Arg)(d-Arg)(d-Arg)(d-Gln)(d-Arg)(d-Arg) ([dBpa][dS][dW][dS][dPhe(F5)][dCha][dR][dR][dR][dQ][dR][dR]) [CBP501, anti-cancer drug candidate; calmodulin modulation and G2 checkpoint abrogation]” the “Definition of CBP501 sensitivity” value (NCI-H2291) was “Sensitive (Cell lines that shifted the curve two fold or more were classified as CBP501 sensitive cells)”, the “Folds increase of CDDP effect by CBP501” value (NCI-H2291; [1]) was 2 fold and the “Definition of CBP501 sensitivity” value (NCI-H2444) was “Sensitive (Cell lines that shifted the curve two fold or more were classified as CBP501 sensitive cells)”. For the same substance, the “Folds increase of CDDP effect by CBP501” value (NCI-H2444; [1]) was 2 fold, the “Folds increase of CDDP effect by CBP501” value (NCI-H2030) was 1 fold and the “Definition of CBP501 sensitivity” value (NCI-H2347) was “Sensitive (Cell lines that shifted the curve two fold or more were classified as CBP501 sensitive cells)”. The “Folds increase of CDDP effect by CBP501” value (NCI-H2347; [1]) was 4 fold, the “Folds increase of CDDP effect by CBP501” value (NCI-H2172) was 1.5 fold and the “Folds increase of CDDP effect by CBP501” value (NCI-H1944) was 1.5 fold. For the same substance, the “Folds increase of CDDP effect by CBP501” value (NCI-H838; NCI-H838 (Table 1, initial twelve cell lines)) was 4 fold, the “Definition of CBP501 sensitivity” value (NCI-H838; [2]) was “Sensitive (Cell lines that shifted the curve two fold or more were classified as CBP501 sensitive cells)” and the “Folds increase of CDDP effect by CBP501” value (NCI-H838; [2]) was 2 fold. The “Folds increase of CDDP effect by CBP501” value (NCI-H2122) was 1 fold, the “Definition of CBP501 sensitivity” value (NCI-H1568) was “Sensitive (Cell lines that shifted the curve two fold or more were classified as CBP501 sensitive cells)” and the “Folds increase of CDDP effect by CBP501” value (NCI-H1568; [1]) was 2 fold. The “Definition of CBP501 sensitivity” value (NCI-H2228) was “Insensitive (those that shifted the curve less than two fold were classified as CBP501 insensitive)”, the “Folds increase of CDDP effect by CBP501” value (NCI-H2228; [1]) was 1.5 fold and the “Definition of CBP501 sensitivity” value (NCI-H1563) was “Insensitive (those that shifted the curve less than two fold were classified as CBP501 insensitive)”. For the same substance, the “Folds increase of CDDP effect by CBP501” value (NCI-H1563; [1]) was 1.5 fold, the “Folds increase of CDDP effect by CBP501” value (NCI-H1993) was 2 fold and the “Definition of CBP501 sensitivity” value (NCI-H1755) was “Insensitive (those that shifted the curve less than two fold were classified as CBP501 insensitive)”. The “Folds increase of CDDP effect by CBP501” value (NCI-H1755; [1]) was 1 fold, the “Definition of CBP501 sensitivity” value (NCI-H1734) was “Sensitive (Cell lines that shifted the curve two fold or more were classified as CBP501 sensitive cells)” and the “Folds increase of CDDP effect by CBP501” value (NCI-H1734; [1]) was 2 fold. The “Definition of CBP501 sensitivity” value (NCI-H1155) was “Insensitive (those that shifted the curve less than two fold were classified as CBP501 insensitive)”, the “Folds increase of CDDP effect by CBP501” value (NCI-H1155; [1]) was 1.5 fold and the “Folds increase of CDDP effect by CBP501” value (NCI-H1299) was 8 fold. The “Binding to 14-3-3 protein” value (14-3-3 protein) was “binds directly to 14-3-3 protein”.
